Data published in patent US9707220B2 (The United States of America, as represented by the …, priority 2005, dated 2017).
Values joined by “and” are separate entries in the source; they are usually repeats but may differ in a detail not shown here. Equal entries are not always repeated. Marks after values point to notes of the source that are not given here.

Assays:
Assay type in all cases: in vivo, human
[1] = tested on: unmedicated, currently depressed patients meeting criteria for Major Depressive Disorder (MDD) or Bipolar Disorder (BD); test: Example 1: double-blind randomized dose-finding study, 15-minute intravenous scopolamine infusions, MADRS depression severity in patients; parameters: key to MADRS score, Follow-up / MADRS score, Session 3, Pt. MEAN / MADRS score, Session 4, Pt. MEAN / MADRS score, Follow-up, Pt. MEAN / MADRS score, Post 2 μg/kg / MADRS score, Post 3 μg/kg / MADRS score, Post 4 μg/kg / MADRS score, Post 2 μg/kg, MEAN / MADRS score, Post 3 μg/kg, MEAN: Montgomery & Asberg Depression Rating Scale (MADRS) total score
Experimental: Prior to each infusion, a psychiatric interview was performed using the Montgomery & Asberg Depression Rating Scale (MADRS) to monitor depression severity across sessions. Participants were monitored continuously for the development of clinically relevant side effects. Sessions were scheduled a minimum of 3 days apart and a maximum of 5 days apart when possible. Follow-up psychiatric interviews were obtained when patients were available.
Comparisons also were made between MADRS scores obtained before and after each specific dose. […] Post evaluations for the last session were provided by the follow-up psychiatric interviews when available.

[2] = tested on: unmedicated, currently depressed patients meeting the DSM-IV criteria for Major Depressive Disorder (MDD) or Bipolar Disorder (BD); test: Example 2: double-blind, placebo-controlled, randomized cross-over study, MADRS depression severity
Description: (§1) Session one was designed to be single-blind during which all subjects received a placebo infusion to allow for a baseline evaluation. The next six sessions were separated into two blocks of three sessions each; one block included a series of three placebo infusions (P Block) and the other a series of three scopolamine infusions (S Block). Individuals were randomized into either the P/S (placebo/scopolamine) series or the S/P (scopolamine/placebo) series, using a double-blind design. In total, all subjects received four placebo infusions and three scopolamine infusions. Prior to infusion, unstructured psychiatric interviews were completed using the Montgomery & Asberg Depression Rating Scale (MADRS) and the Hamilton Anxiety Scale to provide evaluations of depression and anxiety severity upon entering the study (i.e., baseline 1); following the first infusion as an assessment of placebo effects (i.e., baseline 2); after all infusions associated with block 1 (i.e., last evaluation block 1); and after all infusions associated with block 2 (i.e., last evaluation block 2) obtained during a follow-up psychiatric interview. Sessions were scheduled a minimum of 3 days apart and a maximum of 5 days apart when possible.
(§2) Patient diagnosis and features that contribute to prognosis, including history of response to conventional treatment, chronicity and comorbid anxiety disorders, are summarized in Table III.
(§3) Session one was designed to be single-blind during which all subjects received a placebo infusion to allow for a baseline evaluation in all subjects. Subsequently, individuals were randomized into either an P/S or S/P double-blind design whereby P is defined as a series of three sessions during which participants received placebo and S is defined as a series of three sessions during which participants received scopolamine. […] Prior to each infusion, unstructured psychiatric interviews were completed using the MADRS and the Hamilton Anxiety Scale. Sessions were scheduled a minimum of 3 days apart and a maximum of 5 days apart when possible. Follow-up psychiatric interviews were obtained to assess the effects of session seven. […] Repeated measures ANOVA was used to evaluate session differences, group differences and session X group effects. In the presence of significant ANOVA results, t-tests were used for within and between group comparisons to identify specific effects.

[3] = tested on: unmedicated, currently depressed patients meeting the DSM-IV criteria for Major Depressive Disorder (MDD) or Bipolar Disorder (BD); test: Example 2: double-blind, placebo-controlled, randomized cross-over study, Hamilton Anxiety Scale
Description: as §1, §2, §3

[4] = 4.0 μg/kg iv, three infusions, p<0.005
[5] = both treatment groups, no change following placebo

For `CN1C2C[C@H](OC(=O)C(CO)c3ccccc3)CC1[C@H]1OC21` (stereo partly shown) [scopolamine], the “MADRS score, Follow-up” value ([1]; individual patient, follow-up interview after all four sessions) was 37 and 16 and 2 and 9 and 14, the “MADRS score, Session 2” value ([1]; individual patient, scored before the Session 2 infusion, after the Session 1 dose, iv 2, 3 or 4 μg/kg or placebo in random order, sessions 3-5 days apart) was 36^d and 44^a and 25^a and 32^C and 18^b and 29^C and 15^d and the “MADRS score, Session 3” value ([1]; individual patient, scored before the Session 3 infusion, after two earlier sessions, doses in random order) was 35^b and 34^d and 31^b and 4^C and 25^a and 14^a and 22^d and 7^a. The “MADRS score, Session 4” value ([1]; individual patient, scored before the Session 4 infusion, after three earlier sessions, doses in random order) was 35^a and 22^b and 32^d and 8^d and 28^d and 11^d and 17^a and 7^b, the “MADRS score, Post 2 μg/kg” value ([1]; individual patient, scored in the next session, 3 to 5 days after 2 μg/kg iv) was 37 and 32 (2×) and 4 and 14 and 29 and 35 and the “MADRS score, Post 3 μg/kg” value ([1]; individual patient, scored in the next session, 3 to 5 days after 3 μg/kg iv) was 44 and 25 (2×) and 8 and 18 and 22 and 15 and 36. The “MADRS score, Post 4 μg/kg” value ([1]; individual patient, scored in the next session, 3 to 5 days after 4 μg/kg iv) was 22 and 16 and 2 and 9 and 14 and 17 and 7 and 35, the “MADRS score, Session 3, Pt. MEAN” value ([1]; mean of 8 patients, irrespective of session dose) was 21.5 and the “MADRS score, Session 4, Pt. MEAN” value ([1]; mean of 8 patients, irrespective of session dose, significantly less than baseline, p < 0.05) was 20.0*. For the same compound, the “MADRS score, Follow-up, Pt. MEAN” value ([1]; mean of patients with follow-up, significantly less than baseline, p < 0.05) was 15.6*, the “MADRS scores post 4.0 μg/kg compared to baseline and pre-4.0 μg/kg measures” value ([1]; p=0.0015 vs baseline, p=0.018 vs pre-dose) was “significantly lower” and the “MADRS scores following session four compared to session one baseline” value ([1]; patient group, post-hoc t-test, p=0.01) was “significantly lower”. The “MADRS scores following session three compared to session one baseline” value ([1]; patient group, post-hoc t-test, p=0.03) was “significantly lower”, the “Antidepressant effect, MADRS across sessions (summary)” value ([1]; patient group, effect primarily after the 4.0 μg/kg dose) was “robust and rapid antidepressant effects” and the “MADRS score, Post 2 μg/kg, MEAN” value ([1]; patient mean, baseline mean 29.00, pre-dose mean 22.38) was 26.14. For the same compound, the “MADRS score, Post 4 μg/kg, MEAN” value ([1]; patient mean, baseline mean 29.00, pre-dose mean 23.25, p = 0.0015 vs baseline, p = 0.018 vs pre-session) was 15.25^#*, the “MADRS score, Post 3 μg/kg, MEAN” value ([1]; patient mean, baseline mean 29.00, pre-dose mean 27.63) was 24.13 and the “MADRS scores post 2.0 and 3.0 μg/kg compared to baseline and pre-dose” value ([1]; t-tests, patient group) was “No other differences were significant”. For the same compound, the “MADRS depression severity, P/S group at end of Block 2 (scopolamine) vs baseline measures and end of Block 1” value [2, 4] was “significantly lower”, the “MADRS depression severity, S/P group at end of Block 1 (scopolamine) vs baseline 1 and baseline 2” value [2, 4] was “significantly lower” and the “MADRS depression severity, S/P group vs P/S group at last evaluation of Block 1” value ([2]; 4.0 μg/kg iv, three infusions, t=5.3, p<0.0001) was “significantly lower”. For the same compound, the “Depressive symptoms (mean MADRS scores, FIG. 2) following treatment” value [2, 5] was “significant improvement”, the “MADRS depression severity, S/P group at end of Block 2 (placebo after scopolamine) vs baseline measures” value ([2]; persistence of effect, p<0.005) was “significantly lower” and the “Hamilton Anxiety rating, P/S group at end of Block 2 (scopolamine) vs baseline 1, baseline 2 and end of Block 1” value ([3]; 4.0 μg/kg iv, three infusions, p<0.001, p=0.02, p=0.002) was “significantly lower”. For the same compound, the “Hamilton Anxiety rating, S/P group at end of Block 1 (scopolamine) vs baseline measures” value ([3]; 4.0 μg/kg iv, three infusions, p<0.01) was “significantly lower”, the “Hamilton Anxiety score, S/P group vs P/S group at last evaluation of Block 1” value ([3]; 4.0 μg/kg iv, three infusions, t=7.29, p=0.04) was “significantly lower” and the “Anxiety symptoms (mean Hamilton Anxiety scores, FIG. 3) following treatment” value [3, 5] was “significant improvement”. For the same compound, the “Hamilton Anxiety rating, S/P group at end of Block 2 (placebo after scopolamine) vs baseline” value ([3]; persistence of effect, p=0.01) was “significantly lower”.
